Read-outs that look alike come from different tables or passages of the source.
Key:
[1] = biological target: T1, 5-HT4 receptor (Cavia porcellus, UniProt O70528); assay: Guinea pig colon: 5-HT-evoked contraction of longitudinal muscle-myenteric plexus preparations
Protocol: (§1) In some experiments, this tissue was dosed alternately with an approximately equi-effective concentration of the nicotine receptor stimulant, dimethylphenylpiperazinium (DMPP).

[2] = biological target: piglet hippocampal 5-HT4 receptors (Sus scrofa, UniProt Q6Q253); assay: Binding to piglet hippocampal 5-HT4 receptors (125I-SB-207710); settings: for pKi: inhibition of 125I-SB-207710 binding in hippocampus
[3] = tested on: large bowel motility and fluid secretion; assay: Faecal pellet output and fluid content in conscious fed mice (normal and 5-HTP-treated); type: in vivo, mouse
Description: 2) Antagonism in Conscious Fed Mice
A model was developed to examine the effect of 5-HT4 receptor antagonists on large bowel motility (faecal pellet output, FPO) and fluid secretion (pellet wet/dry weight) during `fed` conditions. The antagonists are studied in normal mice (to determine adverse effects, eg constipation)and in mice with functional diarrhoea caused by 5-HTP [Banner S E, Smith M I, Bywater D and Sanger G J (1993), Br J Pharmacol, 110, 17 P, and Banner S E, Smith M I and Sanger G J (1993) Br J Pharmacol; 110, 135 P]. Faecal pellets were collected at 10 min intervals so that their number and wet/dry weights could be determined.

[4] = biological target: T2, 5-HT4 receptor (Rattus norvegicus, UniProt Q62758); assay: Rat oesophagus: relaxation of carbachol-contracted tunica muscularis mucosae
T2 construct: The inner smooth muscle tube of the muscularis mucosae is isolated; from tissue; host or cells: rat oesophageal tunica muscularis mucosae
Description: Rat oesophageal tunica muscularis mucosae is set up according to Baxter et. al. Naunyn-Schmiedeberg's Arch. Pharmacol., 343, 439-446 (1991). […] In contrast to the guinea-pig colon model, where the 5-HT4 receptor is neuronally-located, the receptor here is located on the smooth muscle.

[5] = tested on: anxiolytic activity; assay: Social interaction test in rats; type: in vivo, rat; settings: 0.01, 1, 10 mg.kg^-1
Protocol: IN VIVO TESTING FOR ANXIOLYTIC ACTIVITY
Social Interaction Test in Rats
Rats (male, Sprague Dawleys, Charles River, 250-300 g) are housed in groups of eight in a holding room for 5 days. They are then housed singly in a room adjacent to the experimental room for 4 days prior to the experimental day. On the experimental day rats are administered vehicle, test compound or a benzodiazepine anxiolytic, chlordiazepoxide, p.o. in pairs (n=8-16), at 15 minute intervals beginning at 10.00 a.m. […] The box is made of white perspex 54 cm×37 cm×26 cm with a transparent perspex front side and no lid. The floor is divided up into 24 squares and the box is brightly lit (115 lux). Active social interactive behaviours (grooming, sniffing, climbing over or under, following, biting, mounting and boxing) are scored blind for the next 15 min by remote video monitoring to give total interaction scores. The number of squares crossed by each rat is also scored and summed. After the end of each test the box is carefully wiped.

[6] = biological target: T1, 5-HT4 receptor
Protocol: Male guinea-pigs, weighing 250-400 g are used. Longitudinal muscle-myenteric plexus preparations, approximately 3 cm long, are obtained from the distal colon region. These are suspended under a 0.5 g load in isolated tissue baths containing Krebs solution bubbled with 5% CO2 in O2 and maintained at 37° C. In all experiments, the Krebs solution also contains methiothepin 10^-7 M and granisetron 10^-6 M to block effects at 5-HT1, 5-HT2 and 5-HT3 receptors.

[7] = tested on: 5-HT-induced gastric motility; assay: 5-HT-induced motility in dog gastric pouch; type: in vivo; settings: for ED50: Canis lupus familiaris, read-out: ID50 (contractile response to 5-HT)
Protocol: 4) 5-HT-Induced Motility in Dog Gastric Pouch
Compounds are tested for inhibition in the in vivo method described in "Stimulation of canine motility by BRL 24924, a new gastric prokinetic agent", Bermudez et al, J. Gastrointestinal Motility, 1990, 2(4), 281-286.
Dogs with previously prepared Heidenhain gastric pouches are fasted overnight.

[8] = biological target: 5-HT4 receptor (Sus scrofa, UniProt Q6Q253); assay: Piglet atria spontaneous beating screen
Protocol: Compounds are tested in the piglet atria spontaneous beating screen (Naunyn-Schmiedeberg's Arch. Pharmacol 342, 619-622).

[9] = biological target: Alpha1; assay: Receptor binding studies: Alpha1
[10] = tested on: 5-HT4 receptors; assay: Antagonism of 5-HT-evoked tachycardia in anaesthetised piglets; type: in vivo, piglet
Protocol: 5) Antagonism in Anaesthetised Piglets
In these experiments, antagonism is assessed against the 5-HT-evoked tachycardia, a response that is mediated by the 5-HT4 receptors. All experiments were in 2-5 day old piglets in which the vagi were sectioned.

[11] = tested on: nicotine receptor; assay: Guinea pig colon: DMPP-evoked contraction (nicotinic receptor agonist); settings: 10^-5 M
Protocol: as §1

[12] = biological target: 5-HT1D; assay: Receptor binding studies: 5-HT1D
[13] = biological target: T1, 5-HT4 receptor; assay: Distension-evoked peristalsis in guinea pig isolated ileum; settings: 5-HT 10^-7 M
Protocol: 1) Distension-Evoked Peristalsis in Guinea Pig Isolated Ileum
The oral end was connected to a Krebs-filled reservoir and the aboral end to a vertical column open to the air. The intraluminal filling pressure (oral end) and peristaltic pressure (aboral end) were monitored. The threshold pressure for peristalsis was determined by raising the reservoir at increments of 0.5 cm H2 O at 1 min intervals until peristalsis occurred.

piglet hippocampal 5-HT4 receptors, sequence (Q6Q253 1-402): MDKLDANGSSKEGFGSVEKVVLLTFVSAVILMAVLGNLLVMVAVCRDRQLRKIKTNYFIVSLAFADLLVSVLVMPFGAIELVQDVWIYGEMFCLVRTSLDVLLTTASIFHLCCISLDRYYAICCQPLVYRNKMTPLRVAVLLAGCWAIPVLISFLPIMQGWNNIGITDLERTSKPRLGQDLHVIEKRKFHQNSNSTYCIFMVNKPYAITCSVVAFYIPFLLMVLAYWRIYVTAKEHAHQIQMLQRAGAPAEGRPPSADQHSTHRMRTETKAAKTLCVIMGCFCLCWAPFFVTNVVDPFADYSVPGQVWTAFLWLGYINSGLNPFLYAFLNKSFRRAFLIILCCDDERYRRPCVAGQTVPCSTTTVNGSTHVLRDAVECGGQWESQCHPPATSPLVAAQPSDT
T1 sequence (O70528 whole entry): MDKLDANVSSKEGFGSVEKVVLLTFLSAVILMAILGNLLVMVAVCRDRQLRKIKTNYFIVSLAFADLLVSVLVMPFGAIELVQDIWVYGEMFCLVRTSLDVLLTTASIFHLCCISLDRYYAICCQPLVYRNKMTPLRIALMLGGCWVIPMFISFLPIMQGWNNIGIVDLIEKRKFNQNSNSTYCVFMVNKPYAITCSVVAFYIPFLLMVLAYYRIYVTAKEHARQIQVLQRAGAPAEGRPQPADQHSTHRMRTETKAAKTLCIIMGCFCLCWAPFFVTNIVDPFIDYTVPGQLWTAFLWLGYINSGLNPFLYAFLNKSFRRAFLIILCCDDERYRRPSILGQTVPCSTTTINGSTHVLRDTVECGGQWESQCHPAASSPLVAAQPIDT
5-HT4 receptor (Sus scrofa, UniProt Q6Q253), sequence (Q6Q253 1-402): as the sequence (Q6Q253 1-402) above
T2 sequence (Q62758 whole entry): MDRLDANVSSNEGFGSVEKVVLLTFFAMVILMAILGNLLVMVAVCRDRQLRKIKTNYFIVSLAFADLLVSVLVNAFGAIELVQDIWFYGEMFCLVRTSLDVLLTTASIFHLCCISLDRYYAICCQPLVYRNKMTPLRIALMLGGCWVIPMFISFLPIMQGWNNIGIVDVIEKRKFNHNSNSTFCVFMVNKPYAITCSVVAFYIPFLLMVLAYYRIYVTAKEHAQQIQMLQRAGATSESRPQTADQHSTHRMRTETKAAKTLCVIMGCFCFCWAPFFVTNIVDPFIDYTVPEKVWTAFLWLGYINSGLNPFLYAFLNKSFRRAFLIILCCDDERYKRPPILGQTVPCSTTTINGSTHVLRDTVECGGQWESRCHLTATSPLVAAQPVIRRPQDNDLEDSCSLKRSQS

SMILES: CCCCN1CCC(COC(=O)c2c3n(c4ccccc24)CCO3)CC1 [E6, (1-^n Butyl-4-piperidyl)methyl-2,3-dihydrooxazolo[3,2-a]indole-9-Carboxylate]
- 5-HT4 receptor antagonist activity (in words) ([1]; Y is O): particularly good activity

SMILES: CCCCN1CCC(CNC(=O)c2c3n(c4ccccc24)CCCO3)CC1 [E3, N-[(1-^n Butyl-4-piperidyl)methyl]-3,4-dihydro-2 H-[1,3]oxazino[3,2-a]indole-10-Carboxamide]
- 5-HT4 receptor antagonist activity (in words) ([1]; Y is NH): particularly good activity

SMILES: O=C(NCC1CCN(Cc2ccccc2)CC1)c1c2n(c3ccccc13)CCCO2 [E20, N-[(1-Benzyl-4-piperidyl)methy] 3,4-dihydro-2 H-[1,3]oxazino[3,2-a]indole-10-Carboxamide]
- 5-HT4 receptor antagonist activity (in words) ([1]; Y is NH): particularly good activity

SMILES: CCCCN1CCC(COC(=O)c2c3n(c4ccc(F)cc24)CCCO3)CC1 [E27, (1-^n Butyl-4-piperidyl)methyl 8-fluoro-3,4-dihydro-2 H-[1,3]oxazino[3,2-a]indole-10-Carboxylate]
- 5-HT4 receptor antagonist activity (in words) ([1]; Y is O): particularly good activity

SMILES: O=C(OCCN1CCCCC1)c1c2n(c3ccccc13)CCCO2 [E4, 2-(1-Piperidyl)ethyl 3,4-dihydro-2 H-[1,3]oxazino[3,2-a]indole-10-Carboxylate]
- 5-HT4 receptor antagonist activity (in words) ([1]; Y is O): particularly good activity

SMILES: O=C(OCC1CCN(Cc2ccccc2)CC1)c1c2n(c3ccccc13)CCCO2 [E15, (1-Benzyl-4-piperidyl)methyl-3,4-dihydro-2 H-[1,3]oxazino[3,2-a]indole-10-Carboxylate]
- 5-HT4 receptor antagonist activity (in words) ([1]; Y is O): particularly good activity

SMILES: O=C(NCC1CCN(CC2CCCCC2)CC1)c1c2n(c3ccccc13)CCCO2 [E23, N-[(1-Cyclohexylmethyl-4-piperidyl)methyl] 3,4-dihydro-2 H-[1,3]oxazino[3,2-a]indole-10-Carboxamide]
- 5-HT4 receptor antagonist activity (in words) ([1]; Y is NH): particularly good activity

SMILES: CCCCN1CCC(COC(=O)c2cc(I)c(N)c3c2OCCO3)CC1 [SB-207710]
- Bmax ([2]; piglet hippocampal membranes, n=4): 16±3 fmol/mg protein

SMILES: O=C(NCC1CCN(CCCOc2ccccc2)CC1)c1c2n(c3ccccc13)CCCO2 [E47, N-[(1-(3-Phenoxypropyl)-4-piperidinyl)methyl] 3,4-dihydro-2 H-[1,3]oxazino[3,2-a]indole-10-Carboxamide]
- 5-HT4 receptor antagonist activity (in words) ([1]; Y is NH): particularly good activity

SMILES: O=C(OCC1CCN2CCCCC2C1)c1c2n(c3ccccc13)CCCO2 (stereo not shown) [E2, eq-Quinolizidin-2-ylmethyl-3,4-dihydro-2 H-[1,3]oxazino[3,2-a]indole-10-Carboxylate]
- 5-HT4 receptor antagonist activity (in words) ([1]; Y is O): particularly good activity

SMILES: NC(Cc1c[nH]c2ccc(O)cc12)C(=O)O (stereo not shown) [5-HTP, reference compound]
- effect of 5-HTP on FPO ([3]; 10 mgkg^-1 s.c.): increased FPO above control levels
- time of maximum effect of 5-HTP ([3]; 10 mgkg^-1 s.c.): 20 min
- effect of 5-HTP on faecal output ([3]; higher doses than 10 mg kg^-1 s.c.): evoked watery diarrhoea and unformed faecal output

SMILES: CCCCN1CCC(COC(=O)c2c3n(c4ccccc24)CCCO3)CC1 [E1, (1-^n Butyl-4-piperidyl)methyl-3,4-dihydro-2 H-[1,3]oxazino[3,2-a]indole-10-Carboxylate]
- 5-HT4 receptor antagonist activity (in words) ([1]; Y is O): particularly good activity

SMILES: CCCCN1CCC(COC(=O)c2c3n(c4ccccc24)CCCS3)CC1 [E8, (1-^n Butyl-4-piperidyl)methyl-3,4-dihydro-2 H-[1,3]thiazino[3,2-a]indole-10-Carboxylate]
- 5-HT4 receptor antagonist activity (in words) ([1]; Y is O): particularly good activity

SMILES: CN1C2CCCC1CC(NC(=O)c1nn(C)c3ccccc13)C2 (stereo not shown) [granisetron]
- pKi [2]: below 5

SMILES: NCCc1c[nH]c2ccc(O)cc12 [5-HT, 5-hydroxytryptamine]
- pKi [2]: 6.6±0.1

SMILES: CCCCN1CCC(CNC(=O)c2c3n(c4ccc(F)cc24)CCCO3)CC1 [E28, N-[(1-^n Butyl-4-piperidyl)methyl] 8-fluoro-3,4-dihydro-2 H-[1,3]oxazino[3,2-a]indole-10-Carboxamide]
- 5-HT4 receptor antagonist activity (in words) ([1]; Y is NH): particularly good activity

SMILES: CCCCN1CCC(CNC(=O)c2c3n(c4ccccc24)CCCO3)CC1 [SB-207266-A, N-[(1-^n Butyl-4-piperidyl)methyl]-3,4-dihydro-2 H-[1,3]oxazino[3,2-a]indole-10-Carboxamide]
- duration of action ([3]; 100 ug.kg^-1, dosed 2.5 hours before 5-HTP): effective
- duration of action ([3]; 100 ug.kg^-1, pre-dosed 6 hours before 5-HTP): without effect
- effect on 5-HTP-evoked increase in FPO ([3]; 0.1 to 10 ug.kg^-1 s.c., 5-HTP 10 mg kg^-1 s.c.): dose-dependently prevented the 5-HTP-evoked increase in FPO
- effect on fluid secretion evoked by 5-HTP ([3]; 5-HTP 10 mg kg^-1 s.c.): prevented
- effect on watery diarrhoea caused by 5-HTP ([3]; 5-HTP 50 mg.kg^-1): reduce the watery diarrhoea
- effect on the effects of 5-HTP, oral ([3]; 10-1000 ug.kg^-1 po, 30 min prior to 5-HTP): greatly reduced the effects of 5-HTP
- effect on FPO or fluid content in normal mice ([3]; s.c. or po, not pretreated with 5-HTP): did not affect either FPO or their fluid content in normal mice
- antagonism of 5-HT response (in words) [4]: concentration-dependently acted as a non-surmountable antagonist and reduced the maximum response evoked by 5-HT
- Kb ([4]; from data with the lowest effective concentration, no reliable pA2 estimate possible): ≤ 0.1 nM
- locomotion during the test [5]: not accompanied by any alteration in locomotion
- total interaction scores ([5]; 1 h after administration): Significantly increased total interaction scores
- pKi [2]: 9.48±0.06
- effect on BIMU 1 concentration-response [6]: reduced the maximum response to BIMU 1, without causing a prior right-ward shift in the concentration-response curve
- duration of action (in words) ([7]; 1 and 3 ug.kg^-1 iv): variable and apparently reversible
- duration of antagonism ([7]; 10 and 100 ug.kg^-1 iv, longer than the experiment): > 285 min
- ED50 ([7]; iv): 1.3 µg/kg
- ED50 ([7]; po): 9.6 µg/kg
- effect on basal motility ([7]; any dose, iv and po): no effect
- effect on 5-HT curve ([8]; 10^-7 M): shifted the curve to the right with an apparent reduction in the maximum response
- estimated pKb (-log10 Kb) ([8]; n=2): 10.1
- Kb [1]: 0.0398 nM
- effect on maximum response to 5-HT ([1]; 3×10^-8 M and above): the maximum response to 5-HT was reduced in a concentration-dependent manner
- effect on 5-HT concentration-response curve ([1]; 10^-10-10^-8 M, n=6): parallel rightward shift of the 5-HT curve with no effect on the maximum response
- slope (pA2) ([1]; 10^-10-10^-8 M, n=6): not significantly different from unity
- recovery time of responses to 5-HT ([1]; at the highest concentrations (which reduce maximum 5-HT-evoked contractions), washout): ≤ 90 min
- reversibility of antagonism ([1]; upon washout): could be reversed upon washout
- pKd [9]: < 5.52
- antagonism of 5-HT-evoked tachycardia ([10]; 0.1, 0.3 or 1.0 ugkg^-1 iv, n=2 each): antagonised the 5-HT-evoked tachycardia in a dose-dependent manner
- recovery from antagonism ([10]; 0.3, 1.0 ugkg^-1 i.v., over the duration of the experiment): incomplete
- effect on DMPP-evoked contractions [11]: unaffected
- pKd [12]: < 5.00
- preparations in which the sensitising effect of 5-HT was abolished ([13]; 10^-9 M): 3/3
- tissues in which the action of 5-HT was antagonised ([13]; 10^-10 M): 3/4
- tissues in which there was no ability to antagonise the sensitising effect of 5-HT ([13]; 10^-11 M): 4/4
